Measured values as given in PubChem BioAssay (NCI).
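All cell lines were grown in 96-well plates and treated with compound for 48 hours. TGI marks complete inhibition of growth.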

How the values were obtained:
Assay in all cases: growth of human tumour cells (NCI), 48 h
[1] = test system: SN12C renal
[2] = test system: MOLT-4 leukemia
[3] = test system: HCC-2998 colon
[4] = test system: UACC-257 melanoma
[5] = test system: HOP-62 NSCLC
[6] = test system: UACC-62 melanoma
[7] = test system: MDA-MB-231 breast
[8] = test system: SF-295 CNS
[9] = test system: NCI-H460 lung
[10] = test system: LOX IMVI melanoma
[11] = test system: BT-549 breast
[12] = test system: SR leukemia
[13] = test system: DU-145 prostate
[14] = test system: MCF7 breast
[15] = test system: OVCAR-8 ovarian

Row | SMILES | TGI [1] [µM] | TGI [2] [µM] | TGI [3] [µM] | TGI [4] [µM] | TGI [5] [µM] | TGI [6] [µM] | TGI [7] [µM] | TGI [8] [µM] | TGI [9] [µM] | TGI [10] [µM] | TGI [11] [µM] | TGI [12] [µM] | TGI [13] [µM] | TGI [14] [µM] | TGI [15] [µM]
1 | O=c1c2cc([N+](=O)[O-])ccc2n2n1Cc1ccccc1C2 | > 100 | > 100 | > 100 | > 100 | > 100 | > 100 | > 100 | > 100 | > 100 | > 100 | > 100 | > 100 | > 100 | > 100 | > 100
2 | N#Cc1sc2c(c1OC(=O)c1cccs1)c(=O)n(-c1ccccc1)c(=S)n2-c1ccccc1 | 47.2 | 62.3 | – | > 100 | 49.5 | 35.2 | 45.1 | 55.8 | > 100 | 54.2 | 77.8 | 71.4 | > 100 | 49.7 | 81.6
3 | CCSC1=N/C(=C\c2ccco2)C(Cl)=N1 | > 100 | > 100 | – | > 100 | > 100 | > 100 | > 100 | > 100 | > 100 | > 100 | > 100 | > 100 | > 100 | > 100 | > 100
4 | O=C(O)c1ccc2c(c1)CC1(C2)Cc2ccccc2C1=O (stereo not given) | > 100 | > 100 | > 100 | > 100 | > 100 | > 100 | > 100 | > 100 | > 100 | > 100 | > 100 | > 100 | > 100 | > 100 | > 100
5 | O=c1[nH]nc(Cc2ccccc2)n1/N=C/c1ccccc1Cl | > 100 | > 100 | > 100 | > 100 | – | > 100 | > 100 | > 100 | > 100 | > 100 | > 100 | > 100 | > 100 | > 100 | > 100
6 | COc1cc(C2C3=C(COC3=O)Oc3cc4c(cc32)OCO4)ccc1OC(C)=O (stereo not given) | > 100 | 98.7 | 5.96 | > 100 | > 100 | > 100 | 27.1 | – | > 100 | > 100 | 12.6 | – | > 100 | > 100 | > 56.4
7 | C=C1CC(C)(COc2ccc3ccc(=O)oc3c2)OC1=O (stereo not given) | 25 | 2.46 | 6.96 | 2.58 | 39.5 | 13.2 | 24.6 | 20.8 | 22.9 | 5.65 | 2.65 | > 20.7 | 12.5 | 5.65 | 19.7
8 | CN(C)CCCCN1c2ccccc2Sc2cc(N=[N+]=[N-])ccc21 | 12.1 | 4.3 | 3.37 | 3.25 | 5.22 | 3.31 | 3.12 | 4.05 | 3.83 | 3.06 | 22.9 | > 100 | 3.8 | 3.32 | 3.38
9 | CN(C(=O)Cc1ccc(Cl)c(Cl)c1)[C@@H]1CCCC[C@H]1[N+]1(C)CC=CC1 | > 100 | > 100 | > 100 | > 100 | > 100 | > 100 | > 100 | > 100 | – | > 100 | > 100 | > 100 | > 100 | > 100 | > 100
10 | Cn1c(NS(=O)(=O)c2ccccc2)nc2ccccc21 | > 100 | > 100 | > 100 | > 100 | – | > 100 | > 100 | > 100 | > 100 | – | > 100 | > 100 | > 100 | > 100 | > 100
11 | Cc1ccc(S(=O)(=O)NC2C(=O)c3ccccc3C(=O)C2n2cnc3ccccc32)cc1 (stereo not given) | > 100 | 68.1 | 34.7 | > 100 | > 100 | 74.4 | > 100 | > 100 | 84.3 | > 100 | > 100 | > 100 | > 100 | > 100 | > 100
12 | COc1ccc2cc(/C=N\NC(=O)Nc3cccc4ccccc34)ccc2c1 | > 100 | > 100 | > 100 | > 100 | 28.7 | – | 65.7 | – | 86.4 | > 100 | > 100 | 29.6 | > 100 | > 100 | > 100
13 | COc1ccc(C(c2c[nH]c3ccc(Br)cc23)c2c[nH]c3ccc(Br)cc23)cc1 | – | 0.478 | 0.353 | 0.947 | 1.22 | 0.689 | 0.705 | 1.17 | 0.361 | 0.314 | 3.16 | 0.418 | 1.38 | 0.765 | –
14 | CC(=O)OC1COC(n2c(-c3ccc(Cl)cc3)cc(-c3ccccc3)c(C#N)c2=S)C(OC(C)=O)C1OC(C)=O (stereo not given) | 31.8 | > 100 | > 90.3 | > 100 | 28.4 | > 31.6 | 9.38 | 31.7 | > 66.8 | 15.5 | > 81.8 | > 82.8 | 41.6 | > 100 | 21.6
15 | NC(=O)C(c1ccccc1)N1OC2C(=O)N(c3cccc4ccccc34)C(=O)C2C1c1c2ccccc2c(Cl)c2ccccc12 (stereo not given) | 16.3 | 9.03 | – | 15.7 | 27.8 | 13.8 | 18.8 | 23.9 | 18.6 | 13.6 | 22 | 3.8 | 46.6 | 11.2 | 19.4
16 | Nc1cn(Cc2ccccc2)c2nc(/C=C3/C=CC=CC3=O)c(O)n12 | > 100 | > 100 | > 100 | > 100 | > 100 | > 100 | > 100 | > 100 | > 100 | > 100 | > 100 | – | > 100 | > 100 | > 100

Row | SMILES | TGI [1] [µM] | TGI [2] [µM] | TGI [3] [µM] | TGI [4] [µM] | TGI [5] [µM] | TGI [6] [µM] | TGI [7] [µM] | TGI [8] [µM] | TGI [9] [µM] | TGI [10] [µM] | TGI [11] [µM] | TGI [12] [µM] | TGI [13] [µM] | TGI [14] [µM] | TGI [15] [µM]
17 | COc1c2ccccc2c(OC)c2nc(C)ccc12 | > 100 | 99.7 | > 100 | > 100 | > 100 | > 100 | > 100 | > 100 | > 100 | 56.1 | > 100 | > 79.5 | > 100 | > 100 | > 100
18 | CNn1c(C)n[nH]c1=O | > 100 | > 100 | > 100 | > 100 | > 100 | > 100 | > 100 | > 100 | > 100 | > 100 | > 100 | > 100 | > 100 | > 100 | > 100
19 | Cc1cc(NCCCCCCCCCC[n+]2c(C)cc(N)c3ccccc32)c2ccccc2n1 | 5.85 | 5.23 | 6.01 | – | 30.1 | 4.17 | 5.61 | 13.6 | – | – | > 100 | – | 22.3 | > 100 | 15.8
20 | COc1ccc2c(c1)CCc1[nH]c3ccccc3c1CCCC2 | > 10 | > 10 | > 10 | > 10 | > 10 | > 10 | > 10 | > 10 | – | > 10 | > 10 | > 10 | > 10 | > 10 | > 10
21 | O=c1oc2ccccc2nc1/C=C(\O)c1ccc([N+](=O)[O-])cc1 | > 100 | > 100 | > 100 | > 100 | > 100 | > 100 | > 100 | > 100 | > 100 | – | > 100 | > 100 | > 100 | > 100 | > 100
22 | O=C(C[n+]1ccccc1)N=N/C(C(=O)Nc1c(Cl)c(O)c2ccccc2c1O)=C1/C(=O)Oc2cc(O)ccc2C1=O | 15.1 | > 100 | 12.8 | 12.1 | 22.4 | 4.14 | 61.4 | 11.8 | 8.36 | > 100 | 18.3 | 53.6 | 12.4 | 15.5 | 35.3
23 | COc1cc(C2c3cc4c(cc3OC(Nc3ccccc3)C2C)OCO4)cc(OC)c1OC (stereo not given) | > 100 | 8.28 | > 26.6 | > 86.2 | 9.89 | > 100 | > 52.4 | 3.52 | > 100 | > 100 | > 90.9 | – | > 100 | > 100 | > 31.6
24 | O=[N+]([O-])c1ccc2[nH]ncc2c1Cl | > 100 | 72.6 | > 100 | > 100 | > 100 | > 100 | 35 | > 100 | > 100 | 38.9 | 89.7 | > 100 | 32.2 | > 100 | > 100
25 | [N-]=[NH+]CC(=O)OC(COCc1ccccc1)COCc1ccccc1 | > 100 | > 100 | > 100 | > 100 | > 100 | > 100 | > 100 | > 100 | > 100 | > 100 | > 100 | > 100 | > 100 | > 100 | –
26 | N#Cc1c(Cl)/c(=C/O)c(=O)n2c1nc1ccccc12 | > 100 | 96.5 | > 100 | > 100 | > 100 | > 100 | > 100 | > 100 | > 100 | > 100 | > 100 | – | > 100 | > 100 | > 100
27 | CCCCC(=O)NC1(c2cc3ccccc3s2)CCCCC1 | > 100 | – | > 100 | > 100 | > 100 | > 100 | > 100 | > 100 | > 100 | > 100 | > 100 | > 100 | > 100 | > 100 | > 100
28 | [O-][n+]1onc(-c2ccccc2)c1CN1CCOCC1 | > 100 | 94.1 | > 100 | > 100 | > 100 | > 100 | > 100 | > 100 | > 100 | > 100 | > 100 | – | > 100 | > 100 | > 100
29 | NC1=NN(c2ccccc2)C2(O)c3ccncc3C3=NN(c4ccccc4)C(=O)C132 (stereo not given) | > 100 | > 100 | > 100 | > 100 | – | > 100 | > 100 | > 100 | > 100 | > 100 | > 100 | > 100 | > 100 | > 100 | > 100
30 | COC(=O)C1=C(\c2ccccc2)c2ccccc2C(=O)N(C2CCCCC2)/C=C\1 | > 100 | > 100 | 62 | 41.5 | 45.3 | – | 45.1 | > 100 | 65.7 | 37.7 | 74.6 | – | > 100 | 77.4 | > 100
31 | COc1ccc(C2=C(N)c3c(OC)cccc3C2=O)cc1 | > 100 | > 100 | > 100 | – | > 100 | > 100 | > 100 | > 100 | > 100 | > 100 | > 100 | > 100 | > 100 | > 100 | > 100
32 | Cc1cccc(C)c1NC(=S)NC=C(C(N)=O)C(N)=O | > 100 | > 100 | > 100 | > 100 | > 100 | > 100 | > 100 | > 100 | > 100 | > 100 | > 100 | – | > 100 | > 100 | > 100
